Laboratory results: patent publication US20220242879A1, “FUSED HETEROCYCLE DERIVATIVES” (Janssen Sciences Ireland Unlimited Company, priority 2019, published 2022)
Where two headings read alike, the source gives them in different places.

Columns and labels:
[1] = Cytotoxicity, ATPlite Luminescence Assay; assay type: cell-based, human; details: human, mean value, cells incubated for 3 days, viability by ATPlite, read-out: TOX-HepC2.117 CC50
Protocol: Cytotoxicity of the compounds was tested using HepG2 or HepG2.117 cells, incubated for 3 days in the presence of compounds. The viability of the cells was assessed using the PERKIN ELMER ATPlite Luminescence Assay System.”

[2] = tested on: HBV; test: Anti-HBV activity, HepG2.117 cell line, intracellular HBV DNA by real-time PCR; assay type: cell-based, Hepatitis B virus; details: Hepatitis B virus, read-out: HBV-AVE-HepG2.117 EC50
Protocol: The anti HBV activity was measured using the HepG2.117 cell line, a stable, inducibly HBV producing cell line, which replicates HBV in the absence of doxicycline (Tet-off system). The HepG2 cell line is available from ATCC® under number HB-8065. Transfection of the HepG2 cell line can be as described in Sun and Nassal 2006 Journal of Hepatology 45 (2006) 636-645 “Stable HepG2- and Huh7-based human hepatoma cell lines for efficient regulated expression of infectious hepatitis B virus”.
For the antiviral assay, HBV replication was induced, followed by a treatment with serially diluted compound in 96-well plates. After 3 days of treatment, the antiviral activity was determined by, quantification of intracellular HBV DNA using real-time PCR and an HBV specific primer set and probe.

[3] = 72 h, mean value, HepG2.117 cells, 3 days of treatment, intracellular HBV DNA

Row | SMILES | CC50 at 3 days [1] [nM] | EC50 ([2]; HepG2.117, 72 h) [nM] | CC50 at 3 days ([1]; HepG2.117 cells) [nM] | EC50 [2, 3] [nM]
1 | O=C(NC1CC1)C1Cc2conc2-c2c3c(nn2C1)CCN(C(=O)c1ccc(Cl)c(Cl)c1)C3 (centres unmarked) [Compound 33, N-Cyclopropyl-11-(3,4-dichlorobenzoyl)-5,6,9,10,11,12-hexahydro-4H-[1,2]oxazolo[3,4-c]-pyrido[4′,3′:3,4]pyrazolo[1,5-a]azepine-5-carboxamide] | > 50000 | 154 |  | 
2 | CNC(=O)[C@@H]1Cc2conc2-c2c3c(nn2C1)CCN(C(=O)c1ccc(Cl)c(Cl)c1)C3 (single isomer, unassigned) [Compound 30, (5′R)-11-(3,4-Dichlorobenzoyl)-N-methyl-5,6,9,10,11,12-hexahydro-4H-[1,2]oxazolo[3,4-c]-pyrido[4′,3′:3,4]pyrazolo[1,5-a]azepine-5-carboxamide] |  |  | > 50000 | 181
3 | O=C(Nc1ccccc1)C1Cc2conc2-c2c3c(nn2C1)CCN(C(=O)c1ccc(Cl)c(Cl)c1)C3 (centres unmarked) [Compound 37, 11-(3,4-Dichlorobenzoyl)-N-phenyl-5,6,9,10,11,12-hexahydro-4H-[1,2]oxazolo[3,4-c]-pyrido[4′,3′:3,4]pyrazolo[1,5-a]azepine-5-carboxamide] | > 50000 | 343 |  | 
4 | O=C(c1ccc(Cl)c(Cl)c1)N1CCc2nn3c(c2C1)-c1nocc1CC(C(=O)N1CCOCC1)C3 (centres unmarked) [Compound 38, [1-(3,4-Dichlorobenzoyl)-5,6,9,10,11,12-hexahydro-4H-[1,2]oxazolo[3,4-c]pyrido[4′,3′:3,4]-pyrazolo[1,5-a]azepin-5-yl](morpholin-4-yl)methanone] |  |  | > 50000 | 1440
5 | C[C@@H]1Cc2nn3c(c2CN1C(=O)c1ccc(Cl)c(Cl)c1)-c1nocc1CC3 [Compound 5, (3,4-Dichlorophenyl)[(9R)-9-methyl-4,5,8,9-tetrahydro[1,2]oxazolo[3,4-c]-pyrazolo[1,5-a:4,3-c′]dipyridin-10(11H)-yl]methanone] |  |  | > 50000 | 279
6 | CCNC(=O)C1Cc2conc2-c2c3c(nn2C1)CCN(C(=O)c1ccc(Cl)c(Cl)c1)C3 (centres unmarked) [Compound 32, 11-(3,4-Dichlorobenzoyl)-N-ethyl-5,6,9,10,11,12-hexahydro-4H-[1,2]oxazolo[3,4-c]pyrido-[4′,3′:3,4]pyrazolo[1,5-a]azepine-5-carboxamide] |  |  | > 50000 | 90
7 | O=C(NCCO)C1Cc2conc2-c2c3c(nn2C1)CCN(C(=O)c1ccc(Cl)c(Cl)c1)C3 (centres unmarked) [Compound 34, 11-(3,4-Dichlorobenzoyl)-N-(2-hydroxyethyl)-5,6,9,10,11,12-hexahydro-4H-[1,2]oxazolo-[3,4-c]pyrido[4′,3′:3,4]pyrazolo[1,5-a]azepine-5-carboxamide] |  |  | > 50000 | 358
8 | C=C1Cc2conc2-c2c3c(nn2C1)CCN(C(=O)c1ccc(Cl)c(Cl)c1)C3 [Compound 17, (3,4-Dichlorophenyl)(5-methylidene-5,6,9,10-tetrahydro-4H-[1.2]oxazolo[3,4-c]pyrido-[4′,3′:3,4]pyrazolo[1,5-a]azepin-11(12H)-yl)methanone] |  |  | 24700 | 248
9 | CNC(=O)[C@@H]1Cc2conc2-c2c3c(nn2C1)CCN(C(=O)c1ccc(Cl)c(Cl)c1)[C@@H]3C (single isomer, unassigned) [Compound 49] |  |  | > 50000 | 4640
10 | O=C(c1ccc(Cl)c(Cl)c1)N1CCc2nn3c(c2C1)-c1noc(C(F)(F)F)c1CCC3 [Compound 16, (3,4-Dichlorophenyl)[3-(trifluoromethyl)-5,6,9,10-tetrahydro-4H-[1,2]oxazolo[3,4-c]pyrido[4′,3′:3,4]pyrazolo[1,5-a]azepin-11(12H)-yl]methanone] |  |  | > 50000 | 1620
11 | O=C(c1ccc(Cl)c(Cl)c1)N1CCc2nn3c(c2C1)-c1noc(-c2ccccc2)c1CC3 [Compound 4, (3,4-Dichlorophenyl)(3-phenyl-4,5,8,9-tetrahydro[1,2]oxazolo[3,4-c]pyrazolo-[1,5-a:4,3-c′]dipyridin-10(11H)-yl)methanone] |  |  | > 10000 | > 10000
12 | C[C@@H]1Cc2nn3c(c2CN1C(=O)c1ccc(Cl)c(Cl)c1)-c1nocc1CCC3 [Compound 14, (3,4-dichlorophenyl)[(10R)-10-methyl-5,6,9,10-tetrahydro-4H-[1,2]oxazolo-[3,4-c]pyrido[4′,3′:3,4]pyrazolo[1,5-a]azepin-11(12H)-yl]methanone] |  |  | 39200 | 213
13 | Cc1[nH]nc2c1CCn1nc3c(c1-2)CN(C(=O)c1ccc(Cl)c(Cl)c1)CC3 [Compound 7, (3,4-Dichlorophenyl)(3-methyl-2,4,5,8,9,11-hexahydro-10H-pyrazolo[3,4-c]pyrazolo-[1,5-a:4,3-c′]dipyridin-10-yl)methanone] |  |  | > 50000 | 1290
14 | Cc1onc2c1CCCn1nc3c(c1-2)CN(C(=O)c1ccc(Cl)c(Cl)c1)[C@H](C)C3 [Compound 15, (3,4-dichlorophenyl)[(10R)-3,10-dimethyl-5,6,9,10-tetrahydro-4H-[1,2]oxazolo-[3,4-c]pyrido[4′,3′:3,4]pyrazolo[1,5-a]azepin-11(12H)-yl]methanone] |  |  | > 43500 | 934
15 | CNC(=O)[C@H]1Cc2conc2-c2c3c(nn2C1)CCN(C(=O)c1ccc(Cl)c(Cl)c1)[C@@H]3C (single isomer, unassigned) [Compound 50] |  |  | > 50000 | 8430
16 | C=C1Cc2c(noc2N(C)C)-c2c3c(nn2C1)CCN(C(=O)c1ccc(Cl)c(Cl)c1)C3 [Compound 26, (3,4-Dichlorophenyl)[3-(dimethylamino)-5-methylidene-5,6,9,10-tetrahydro-4H-[1,2]oxazolo-[3,4-c]pyrido[4′,3′:3,4]pyrazolo[1,5-a]azepin-11(12H)-yl]methanone] |  |  | > 50000 | 1150
17 | O=C(c1ccc(Cl)c(Cl)c1)N1CCc2nn3c(c2C1)-c1n[nH]cc1CC(CO)C3 (centres unmarked) [Compound 43, (3,4-Dichlorophenyl)[5-(hydroxymethyl)-2,5,6,9,10,12-hexahydropyrazolo[3,4-c]pyrido-[4′,3′:3,4]pyrazolo[1,5-a]azepin-11(41)-yl]methanone] |  |  | > 50000 | 2320
18 | Cn1cc2c(n1)-c1c3c(nn1CC2)CCN(C(=O)c1ccc(Cl)c(Cl)c1)C3 [Compound 8, (3,4-Dichlorophenyl)(2-methyl-2,4,5,8,9,11-hexahydro-10H-pyrazolo[3,4-c]pyrazolo-[1,5-a:4,3-c]dipyridin-10-yl)methanone] |  |  | > 50000 | 2550
19 | Cc1nc2c(s1)CCn1nc3c(c1-2)CN(C(=O)c1ccc(Cl)c(Cl)c1)CC3 [Compound 10, (3,4-Dichlorophenyl)(2-methyl-4,8,9,11-tetrahydro[1,3]thiazolo[4,5-c]pyrazolo[1,5-a:4,3-c′]-dipyridin-10(5H)-yl)methanone] |  |  | > 10000 | 8060
20 | C=C1Cc2c(noc2N)-c2c3c(nn2C1)CCN(C(=O)c1ccc(Cl)c(Cl)c1)C3 [Compound 23, (3-Amino-5-methylidene-5,6,9,10-tetrahydro-4H-[1,2]oxazolo[3,4-c]pyrido[4′,3′:3,4]pyrazolo-[1,5-a]azepin-11(12H)-yl)(3,4-dichlorophenyl)methanone] |  |  | 21200 | 172
21 | Nc1onc2c1CC(O)(CO)Cn1nc3c(c1-2)CN(C(=O)c1ccc(Cl)c(Cl)c1)CC3 (centres unmarked) [Compound 24, [3-Amino-5-hydroxy-5-(hydroxymethyl)-5,6,9,10-tetrahydro-4H-[1,2]oxazolo[3,4-c]pyrido-[4′,3′:3,4]pyrazolo[1,5-a]azepin-11(12H)-yl](3,4-dichlorophenyl)methanone] |  |  | > 50000 | 1590
22 | O=C(NCC(F)(F)F)C1Cc2conc2-c2c3c(nn2C1)CCN(C(=O)c1ccc(Cl)c(Cl)c1)C3 (centres unmarked) [Compound 35, 11-(3,4-Dichlorobenzoyl)-N-(2,2,2-trifluoroethyl)-5,6,9,10,11,12-hexahydro-4H-[1,2]oxazolo-[3,4-c]pyrido[4′,3′:3,4]pyrazolo[1,5-a]azepine-5-carboxamide] |  |  | > 50000 | 395
23 | O=C(c1ccc(Cl)c(Cl)c1)N1CCc2nn3c(c2C1)-c1nocc1CC(O)C3 (centres unmarked) [Compound 19, (3,4-Dichlorophenyl)(5-hydroxy-5,6,9,10-tetrahydro-4H-isoxazolo[3,4-c]pyrido[4′,3′:3,4]pyrazolo[1,5-a]azepin-11(12H)-yl)methanone] |  |  | > 50000 | 263
24 | Cn1cc2c(n1)-c1c3c(nn1CCC2)CCN(C(=O)c1ccc(Cl)c(Cl)c1)C3 [Compound 42, (3,4-Dichlorophenyl)(2-methyl-2,5,6,9,10,12-hexahydropyrazolo[3,4-c]pyrido[4′,3′:3,4]-pyrazolo[1,5-a]azepin-11(4H)-yl)methanone] |  |  | > 50000 | > 48800
25 | Nc1nc2c(s1)CCCn1nc3c(c1-2)CN(C(=O)c1ccc(Cl)c(Cl)c1)CC3 [Compound 51, (2-amino-4,5,6,9,10,12-hexahydro-11H-pyrido[4′,3′:3,4]pyrazolo[1,5-a]thiazolo[4,5-c]azepin-11-yl)(3,4-dichlorophenyl)methanone] |  |  | > 50000 | > 10000
